Experimental data: patent US7494821B2, “Fluorescein based sensors for tracking nitric oxide in live cells” (Massachusetts Institute of Technology, priority 2005, dated 2009)

Key:
[1] = test system: iNOS; experiment: iNOS expression in Raw 264.7 cells (Western blot); assay type: cell-based, murine; details: Raw 264.7 cells upon introduction of LPS and IFN-γ
Protocol: (§1) Raw 264.7, SK-N-SH, and HeLa cells were purchased from the American Type Culture Collection (ATCC). All three cell lines were maintained in Dulbecco's modified Eagles' media (DMEM) (GibcoBRL) containing 10% (v/v) heat-inactivated fetal bovine serum (FBS) (HyClone), 1 mM sodium pyruvate (Sigma), 100 units/ml penicillin, 100 μg/ml streptomycin (Invitrogen), and 0.1 mM nonessential amino acid solution for minimal essential medium (Sigma). All cells were grown at 37° C. in a humidified atmosphere of 10% CO2. A nitrite assay was performed with Griess reagents (Promega) on Raw 264.7 cells grown in DMEM free of phenol red. Calcium sensor fluo-4 AM was purchased from Invitrogen. MTT [3-(4,5-dimethylthiazol-2-yl)-2,5-diphenyltetrazolium bromide] (Sigma-Aldrich) assay was described in Supplementary information. The expression of iNOS in Raw 264.7 cells was analyzed by Western blot on the extracts of cells stimulated by LPS and INF-γ. The protein was silenced by short hairpin RNA-induced RNAi and the resulting cell lines were used in fluorescence imaging by Cu(FL5).

[2] = Cell membrane passage in live cell studies; assay type: cell-based
Source text: In summary, we have synthesized a Cu(II)-based fluorescein compound Cu(FL5) for imaging NO based on redox chemistry. Reduction of Cu(FL5) by NO to Cu(I) with nitrosation of the FL5 ligand is accompanied by bright visible light emission. […] Studies of Cu(FL5) in pH 7.0 aqueous buffered solutions indicate that the NO response is direct, rapid, and specific.

[3] = test system: HeLa cells; experiment: Control imaging in HeLa cells; assay type: cell-based
Protocol: We investigated the ability of Cu(FL5) to detect NO produced in SK-N-SH human neuroblastoma cells under physiological conditions, since constitutive NO synthase (“cNOS”) in this cell line can be activated by estrogen to produce NO. Estrogen administration leads to an increase in the cytosolic Ca(II) concentration that alters the structure of calmodulin, which in turn activates cNOS. The NO-dependent fluorescence response, monitored after simultaneous administration of 17β-estradiol (100 nM) and Cu(FL5) (1 μM) to the cells, was completed within 5 min with a 4.0±0.6-fold increase in fluorescence (FIGS. 5a and b). […] As another control, HeLa cells were co-treated with 17β-estradiol (100 nM) and Cu(FL5) (1 μM).
To investigate further the origin of fluorescence detected by Cu(FL5), iNOS was silenced in Raw 264.7 cells by short hairpin RNA (shRNA)-induced RNA interference (RNAi) (FIG. 6b).
Raw 264.7, SK-N-SH, and HeLa cells were purchased from the American Type Culture Collection (ATCC). […] The expression of iNOS in Raw 264.7 cells was analyzed by Western blot on the extracts of cells stimulated by LPS and INF-γ. The protein was silenced by short hairpin RNA-induced RNAi and the resulting cell lines were used in fluorescence imaging by Cu(FL5).

[4] = test system: mixture of Raw 264.7 and SK-N-SH cells; experiment: NO imaging in Raw 264.7 and SK-N-SH co-culture; assay type: cell-based; details: 17β-estradiol (100 nM) and Cu(FL5) (1 μM) for 10 min
Protocol: FIG. 9 illustrates NO detection in SK-N-SH and Raw 264.7 cells by Cu(FL5). Cells were treated with Cu(FL5) (1 μM) and 17β-estradiol (500 nM) for 10 min. The media were subsequently removed and the cells washed with PBS. Images were taken with a Nikon Eclipse TS100 microscope.
The fluorescence response was also monitored in a mixture of Raw 264.7 and SK-N-SH cells grown on the same plate and co-treated with 17β-estradiol (100 nM) and Cu(FL5) (1 μM) for 10 min.

[5] = Specificity for NO over other reactive nitrogen and oxygen species; details: 100 equivalents of O2−, ClO−, H2O2, HNO, NO2−, NO3−, ONOO−, 2 h, pH 7.0 buffer, 1 μM
Protocol: FIG. 6 illustrates the specificity of Cu(FL5) for NO over other reactive nitrogen and oxygen species. The fluorescence response of Cu(FL5) was determined after addition of 100 equivalents of O2^−, ClO^−, H2O2, HNO (Angeli's salt Na2N2O3), NO2^−, NO3^−, and ONOO^− for 2 h in buffered aqueous solution (50 mM PIPES, pH 7.0, 100 mM KCl). The excitation wavelength was 503 nm. All data (F) are normalized with respect to the emission of Cu(FL5) (F(Cu(FL5))). [Cu(FL5)]=1 μM. Error bars indicate s.d.
The fluorescence of a 1 μM FL5 solution was diminished by 18±3% upon introduction of an equimolar quantity of CuCl2 at 37° C. Addition of excess NO to a buffered aqueous Cu(FL5) solution led to an immediate 11.2±1.5-fold increase in fluorescence (FIG. 5). […] The lower detection limit for NO is 5 nM.

[6] = test system: SK-N-SH cells; experiment: MTT cytotoxicity assay on SK-N-SH cells; assay type: cell-based, human
Protocol: To test the toxicity of Cu(FL5), a MTT [3-(4,5-dimethylthiazol-2-yl)-2,5-diphenyltetrazolium bromide] assay was performed on SK-N-SH cells after 5 days of incubation with Cu(FL5) (1 μM).
Thus, both Cu(FL5) and FL5−NO are not toxic under the conditions used here for bioimaging of NO.
as §1

[7] = test system: Raw 264.7 cells; experiment: MTT cytotoxicity assay on Raw 264.7 cells; assay type: cell-based, murine; details: Cu(FL5) 1 μM, 5 days
Protocol: as §1

[8] = Quantum yield; assay type: physicochemical
Source text: Quantum yield may be obtained by comparison of the integrated area of the corrected emission spectrum of the sample with that of a reference solution. A preferred reference solution is a solution of fluorescein in 0.1 N NaOH, quantum efficiency 0.95. The concentration of the reference is adjusted to match the absorbance of the test sample. The quantum yields may be calculated using the following equation.
Upon addition of excess NO, a 499 nm peak in the UV-vis spectrum of Cu(FL5) in pH 7.0 buffered solution red-shifted back to the λmax characteristic of FL5 or the synthetic FL5−NO compound (504 nm), which differs from the band formed in the reaction of FL5 with 1 equivalent of Cu(I) added as [Cu(CH3CN)4](BF4) (506 nm). […] In addition, the spectrum of the NO reaction solution closely resembled that of the monoanionic fluorescein formed by lowering the pH from 7.0 to 5.0. […] These values are in the range previously reported for N-nitrosamines. The presence of two separate chemical shifts might arise from different isomers in solution, the Δδ of 2.29 being similar to that of previously reported of N-nitrosamines. […] Lastly, FL5−NO is brighter than FL5 or Cu(FL5), the respective quantum yields being ΦFL-NO=0.58±0.02 and ΦFL=0.077±0.002.

Structure (SMILES)	effect on expression of iNOS [1]	passage through cell membranes [2]	fluorescence in HeLa cells co-treated with 17β-estradiol ([3]; 17β-estradiol (100 nM), Cu(FL5) (1 μM))	turn-on fluorescence emission in HeLa cells treated with LPS and IFN-γ ([3]; LPS and IFN-γ prior to Cu(FL5) incubation)	fluorescence response in co-culture [4]	fluorescence response specificity for NO over other reactive species [5]	viable cells (MTT), cell line not specified ([6]; 1 μM Cu(FL5), after 5 days)	survival of SK-N-SH cells (MTT) ([6]; 5 days of incubation, Cu(FL5) 1 μM)	survival of Raw 264.7 cells (MTT) [7]	quantum yield Φ [8]
Cc1ccc2cccc(NCc3c([O][Cu][Cl])ccc4c(-c5ccccc5C(=O)O)c5cc(Cl)c(=O)cc-5oc34)c2n1 [Cu(FL5)]	does not affect the expression of iNOS	readily passes through cell membranes	absence of turn-on emission	not observed	fluorescence increase was observed exclusively in the SK-N-SH cells	detects NO specifically	> 80%	80±9%	90±3%	
Cc1ccc2cccc(NCc3c(O)ccc4c(-c5ccccc5C(=O)O)c5cc(Cl)c(=O)cc-5oc34)c2n1 [FL5, 2-{2-chloro-6-hydroxy-5-[(2-methyl-quinolin-8-ylamino)-methyl]-3-oxo-3H-xanthen-9-yl}-benzoic acid]										0.077±0.002
